Drawing on PubChem BioAssay (NCI), this text covers TGI and GI50 for 14 molecules.

Some test systems named below: IGROV1 ovarian; SR leukemia; NCI-H226 lung; RPMI-8226 leukemia; OVCAR-8 ovarian; MDA-MB-231 breast; SNB-19 CNS; EKVX NSCLC; OVCAR-3 ovarian; MALME-3M melanoma; UO-31 renal; ACHN renal; RXF 393 renal; HCT-15 colon; NCI/ADR-RES ovarian.
What all share (assay): inhibition of tumour cell growth, NCI panel, 48 h

Values joined by “and” are separate entries in the source; they are usually repeats but may differ in a detail not shown here. Equal values may be shown once.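 Test compounds were applied to cells in 96-well plates for 48 hours at 5 doses. Here, GI50 denotes the concentration required for 50% inhibition of growth. TGI: total growth inhibition.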

As to `O=C1C(NCCc2cc(Br)c(O)c(Br)c2)=CC(=O)c2ncccc21`, the TGI turned out to be 10.3 µM in the assay with IGROV1 ovarian; 6.46 µM with SR leukemia; 8.52 µM in the assay on NCI-H226 lung; 23.2 µM in the assay on RPMI-8226 leukemia; 32.7 µM in the assay with OVCAR-8 ovarian; 29.5 µM with MDA-MB-231 breast. The TGI worked out at 27.5 µM in the assay on SNB-19 CNS; 30.7 µM with EKVX NSCLC; 6.26 µM in the assay with OVCAR-3 ovarian; 2.84 µM with MALME-3M melanoma; 41.6 µM with UO-31 renal; 24.9 µM in the assay on ACHN renal. Moreover, the TGI worked out at 29.1 µM with RXF 393 renal, 31.9 µM in the assay on HCT-15 colon and 49.5 µM in the assay with NCI/ADR-RES ovarian.

Consider `NN/C(=N\S(=O)(=O)c1cc(Cl)c(Oc2ccc([N+](=O)[O-])cc2Cl)c(Cl)c1)Nc1ccc(Cl)cc1`, for which the TGI in the assay with IGROV1 ovarian was 42.3 µM; with SR leukemia, 57.7 µM; in the assay on NCI-H226 lung, 33.4 µM; with RPMI-8226 leukemia, more than 100 µM; in the assay on OVCAR-8 ovarian, 60.4 µM; in the assay with MDA-MB-231 breast, 39.9 µM. Moreover, the TGI with SNB-19 CNS was found to be 62.4 µM; with EKVX NSCLC it was 61.2 µM; in the assay with OVCAR-3 ovarian it was 33 µM; with MALME-3M melanoma it was 37.2 µM; with UO-31 renal, 32.3 µM; in the assay with ACHN renal it was 67.4 µM. Also, the TGI with RXF 393 renal came to 28.4 µM; in the assay with HCT-15 colon, 41.7 µM; with NCI/ADR-RES ovarian, 67.9 µM.

For `C[N+](C)(C)CC1Cc2ccccc2C1=O` (centres undefined), the TGI in the assay on IGROV1 ovarian was more than 10 µM; in the assay on SR leukemia, 7.11 µM; in the assay with NCI-H226 lung, more than 10 µM; in the assay with RPMI-8226 leukemia it was more than 6.86 µM; with OVCAR-8 ovarian it was more than 3.16 µM; in the assay on MDA-MB-231 breast it was more than 10 µM. For the same molecule, the TGI is more than 10 µM with SNB-19 CNS; more than 10 µM with EKVX NSCLC; more than 10 µM in the assay with OVCAR-3 ovarian; 4.53 µM in the assay with MALME-3M melanoma; more than 10 µM in the assay on UO-31 renal; more than 10 µM in the assay on ACHN renal. Also, the TGI in the assay on RXF 393 renal is more than 10 µM; with HCT-15 colon, more than 10 µM; in the assay on NCI/ADR-RES ovarian it was more than 6.85 µM.

Consider `CCOC(=O)CNC(=O)C(CSC(=O)N(O)c1ccc(Br)cc1)NC(=O)CCC(N)C(=O)OCC` (centres undefined), for which the TGI in the assay with IGROV1 ovarian, in the assay with SR leukemia, in the assay with NCI-H226 lung, with RPMI-8226 leukemia, with OVCAR-8 ovarian and in the assay with MDA-MB-231 breast was more than 50 µM throughout. Besides, the TGI in the assay with SNB-19 CNS, with EKVX NSCLC, in the assay with OVCAR-3 ovarian, in the assay on MALME-3M melanoma, in the assay on UO-31 renal and with ACHN renal was more than 50 µM in each case. Moreover, the TGI with RXF 393 renal, in the assay on HCT-15 colon and with NCI/ADR-RES ovarian was more than 50 µM throughout.

`Cc1ccc2c(c1)C(C1Cc3c(C)cccc3C1=O)OC2=O` (centres undefined): the TGI with IGROV1 ovarian, in the assay on SR leukemia, in the assay with NCI-H226 lung, in the assay with RPMI-8226 leukemia, in the assay on OVCAR-8 ovarian and in the assay with MDA-MB-231 breast was more than 100 µM in each case. Moreover, the TGI in the assay on SNB-19 CNS, with EKVX NSCLC, in the assay on OVCAR-3 ovarian, in the assay on MALME-3M melanoma, in the assay on UO-31 renal and in the assay with ACHN renal was more than 100 µM each time. Besides, the TGI in the assay on RXF 393 renal, with HCT-15 colon and in the assay with NCI/ADR-RES ovarian was more than 100 µM each time.

For `COC(=O)/C=C/c1cc(OC)c2c(c1)C(C(=O)OC)C(c1ccc(OC)c(OC)c1)O2` (centres undefined), the TGI is more than 100 µM in the assay with IGROV1 ovarian; more than 100 µM in the assay on SR leukemia; > 100 µM and 25.6 µM in the assay with NCI-H226 lung; more than 100 µM with RPMI-8226 leukemia; more than 100 µM in the assay with OVCAR-8 ovarian; more than 100 µM in the assay with MDA-MB-231 breast. Moreover, the TGI in the assay on SNB-19 CNS, with EKVX NSCLC, in the assay on OVCAR-3 ovarian, with MALME-3M melanoma, with UO-31 renal and with ACHN renal was more than 100 µM in each case. Besides, the TGI in the assay with RXF 393 renal, with HCT-15 colon and with NCI/ADR-RES ovarian was more than 100 µM throughout. Also, the GI50 in the assay with EKVX NSCLC is 39.3 µM and 5.12 µM; in the assay with UO-31 renal, 32.1 µM and 8.62 µM; in the assay on NCI/ADR-RES ovarian it was 43.3 µM and 4.9 µM.

With `CC(=O)OCC(OC(C)=O)C(OC(C)=O)C(/C=N/N(C(C)=O)S(=O)(=O)c1ccc(/C=C2\NC(=O)NC2=O)cc1)OC(C)=O` (centres undefined), the TGI in the assay with IGROV1 ovarian, in the assay on SR leukemia, in the assay with NCI-H226 lung, in the assay on RPMI-8226 leukemia, with OVCAR-8 ovarian and with MDA-MB-231 breast was more than 100 µM in each case. For the same molecule, the TGI in the assay with SNB-19 CNS, in the assay with EKVX NSCLC, with OVCAR-3 ovarian, with MALME-3M melanoma, in the assay with UO-31 renal and in the assay with ACHN renal was more than 100 µM throughout. Further, the TGI in the assay with RXF 393 renal, in the assay on HCT-15 colon and in the assay with NCI/ADR-RES ovarian was more than 100 µM throughout. Besides, the GI50 with RPMI-8226 leukemia was 0.583 µM.

For `O=c1cc(-c2ccc(O)c(O)c2)oc2cc(OC3OC(CO)C(O)C(O)C3O)cc(O)c12` (centres undefined), the TGI in the assay on IGROV1 ovarian, in the assay with SR leukemia, in the assay with NCI-H226 lung, in the assay on RPMI-8226 leukemia, in the assay with OVCAR-8 ovarian and with MDA-MB-231 breast was more than 100 µM in each case. Moreover, the TGI with SNB-19 CNS, in the assay on EKVX NSCLC, in the assay on OVCAR-3 ovarian, in the assay on MALME-3M melanoma, with UO-31 renal and in the assay on ACHN renal was more than 100 µM each time. Moreover, the TGI with RXF 393 renal, in the assay on HCT-15 colon and with NCI/ADR-RES ovarian was more than 100 µM in each case.

Take `CN(CCO)CC(=O)CC(O)(C(F)(F)F)C(F)(F)F`: the TGI with IGROV1 ovarian, in the assay on SR leukemia, in the assay with NCI-H226 lung, in the assay with RPMI-8226 leukemia, with OVCAR-8 ovarian and in the assay on MDA-MB-231 breast was more than 100 µM each time. Moreover, the TGI was more than 100 µM with SNB-19 CNS; more than 100 µM in the assay with EKVX NSCLC; 87 µM in the assay with OVCAR-3 ovarian; more than 100 µM in the assay on MALME-3M melanoma; more than 100 µM in the assay with UO-31 renal; 99.4 µM in the assay with ACHN renal. Further, the TGI in the assay on RXF 393 renal was 46.8 µM; in the assay with HCT-15 colon, more than 100 µM; with NCI/ADR-RES ovarian, more than 100 µM.

Turning to `Cc1ccc2c(ccc3c[n+]4ccccc4c(C)c32)c1`, the TGI in the assay on IGROV1 ovarian is 34.7 µM; in the assay with SR leukemia, 46.3 µM; with NCI-H226 lung it was 5.71 µM; in the assay on RPMI-8226 leukemia, 67.2 µM; with OVCAR-8 ovarian it was 16.2 µM; in the assay on MDA-MB-231 breast, 23.1 µM. Further, the TGI was 12.8 µM in the assay with SNB-19 CNS; more than 100 µM in the assay on EKVX NSCLC; 4.02 µM in the assay with OVCAR-3 ovarian; 2.98 µM with MALME-3M melanoma; more than 100 µM in the assay with UO-31 renal; 39 µM in the assay with ACHN renal. Also, the TGI in the assay with RXF 393 renal, in the assay on HCT-15 colon and with NCI/ADR-RES ovarian was more than 100 µM in each case.

On to `CN(C)c1ccc(C(C#N)N2CCCN(C(C#N)c3ccc(N(C)C)cc3)C2c2ccc(N(C)C)cc2)cc1` (centres undefined), for which the TGI in the assay with IGROV1 ovarian, with SR leukemia, with NCI-H226 lung, in the assay on RPMI-8226 leukemia, in the assay with OVCAR-8 ovarian and in the assay on MDA-MB-231 breast was more than 100 µM throughout. The TGI in the assay with SNB-19 CNS, in the assay with EKVX NSCLC, in the assay on OVCAR-3 ovarian, in the assay on MALME-3M melanoma, in the assay with UO-31 renal and with ACHN renal was more than 100 µM each time. Further, the TGI with RXF 393 renal, in the assay with HCT-15 colon and in the assay with NCI/ADR-RES ovarian was more than 100 µM each time.

As to `Cc1sc2ncnc(NCCc3ccccc3)c2c1C`, the TGI worked out at 32.5 µM in the assay with IGROV1 ovarian; 26.6 µM in the assay with SR leukemia; 42.3 µM in the assay on NCI-H226 lung; 42.8 µM in the assay on RPMI-8226 leukemia; 38 µM in the assay on OVCAR-8 ovarian; 37.9 µM in the assay with MDA-MB-231 breast. Moreover, the TGI in the assay with SNB-19 CNS was more than 100 µM; in the assay on EKVX NSCLC, 13.9 µM; in the assay with OVCAR-3 ovarian it was more than 100 µM; with MALME-3M melanoma, 52.3 µM; in the assay with UO-31 renal, 38.8 µM; in the assay with ACHN renal it was 69.2 µM. In addition, the results for the TGI in the assay on RXF 393 renal, in the assay with HCT-15 colon and with NCI/ADR-RES ovarian were 34.1 µM, 87.7 µM and more than 100 µM, respectively.

Turning to `COc1ccc(NS(=O)CCc2ccccc2)cc1` (centres undefined), the TGI in the assay on IGROV1 ovarian, with SR leukemia, in the assay with NCI-H226 lung, in the assay on RPMI-8226 leukemia, in the assay on OVCAR-8 ovarian and in the assay with MDA-MB-231 breast was more than 100 µM each time. Also, the TGI in the assay with SNB-19 CNS, in the assay with EKVX NSCLC, with OVCAR-3 ovarian, in the assay on MALME-3M melanoma, in the assay with UO-31 renal and in the assay on ACHN renal was more than 100 µM each time. Further, the TGI with RXF 393 renal, in the assay on HCT-15 colon and in the assay with NCI/ADR-RES ovarian was more than 100 µM throughout.

On to `O=C(CNC(=O)OCc1ccccc1)NCCCCC(NC(=O)OCc1ccccc1)C(=O)O` (centres undefined), for which the TGI with IGROV1 ovarian, in the assay on SR leukemia, with NCI-H226 lung, in the assay on RPMI-8226 leukemia, in the assay on OVCAR-8 ovarian and with MDA-MB-231 breast was more than 100 µM each time. The TGI with SNB-19 CNS, with EKVX NSCLC, in the assay with OVCAR-3 ovarian, in the assay with MALME-3M melanoma, in the assay with UO-31 renal and in the assay with ACHN renal was more than 100 µM in each case. The TGI in the assay with RXF 393 renal, in the assay on HCT-15 colon and in the assay on NCI/ADR-RES ovarian was more than 100 µM each time.
